Columns and labels:
[1] = test system: HT-29; assay: cells; settings: Homo sapiens, HT-29, 48 h; for activity at 10 µM: read-out: Cell growth (%) HT-29
[2] = test system: MCF-7; assay: cells; settings: Homo sapiens, MCF7, 48 h; for activity at 10 µM: read-out: Cell growth (%) MCF-7
[3] = test system: CCRF-CEM; assay: cells; settings: Homo sapiens, 48 h; for activity at 10 µM: read-out: Cell growth (%) CCRF-CEM
[4] = test system: 184B5; assay: MTT cytotoxicity in nonmalignant mammary gland derived cells; format: cell-based
Description: (§1) Cell lines were provided by the European Collection of Cell Cultures (ECACC) or by the American Type Culture Collection (ATCC). Seven cell lines were used: MCF-7 (breast adenocarnicoma), 184B5 (nonmalignant, mammary gland derived), CCRF-CEM (lymphoblastic leukemia), HT-29 (colon carcinoma), HTB-54 (lung carcinoma), BEAS-2B (nonmalignant, derived from the bronchial epithelium) and PC-3 (prostate carcinoma). MCF-7, CCRF-CEM, HT-29, HTB-54, BEAS-2B and PC-3 cell lines were grown in RPMI medium (Gibco) supplemented with 10% fetal bovine serum (FBS; Gibco), 100 units/mL penicillin and […] streptomycin (Gibco). 184B5 cells were grown in DMEM/F12 medium supplemented with 5% FBS, 1 × ITS (Lonza), 100 nM hydrocortisone (Aldich), 2 mM sodium pyruvate (Lonza), 20 ng/mL EGF (Sigma-Aldrich), 0.3 nM trans-retinoic acid (Sigma-Aldrich), 100 units/mL penicillin and […] streptomycin. Cells were maintained at 37 °C and 5% CO2.
(§2) The cytotoxic effect of each substance was tested by the MTT method. Each compound was initially dissolved in DMSO at a concentration of 0.01 M, and serial dilutions were prepared with nonsupplemented medium. The cytotoxic effect of each compound was tested at 50 and 10 µM as a first screening. […]
(§3) A total of 1 × 10^4 cells/well in 96-well plates were treated with increasing concentrations of the corresponding compounds for 48 h at 37 °C in a humidified atmosphere containing 5% CO2. Then, cells were incubated with 50 µL of MTT (2 mg/mL stock) for 4 h. The medium was then removed by aspiration, and the formazan crystals were dissolved in […] of DMSO. […] Data were obtained from at least 3 independent experiments performed in quadruplicate. The standard error of the means (SEM) for the cytotoxic parameters was calculated applying the standard deviation formula to the mean values of each parameter for the three independent experiments performed.
(§4) . Cisplatin was used as a standard drug. […]. […] The presence of electron-withdrawing groups (-NO2, -CF3, -Cl) in the phenyl ring favored the cytotoxic activity in the amides, but in the phosphoramidates, the best results were obtained for aliphatic chains methoxy (II.1b, II.2b) and ethoxy (II.1d, II.2d). […].
(§5) The lack of selectivity toward cancerous cells is one of the major issues during the discovery and development of new anticancer agents. Therefore, we evaluated the cytotoxic activity of our compounds against two cell lines derived from nonmalignant breast tissue (184B5) and no malignant bronchial epithelium (BEAS-2B) (Table 2). […].

[5] = as above; format: cell-based; settings: human; nonmalignant cells, 48 h; read-out: LC50 184B5
Description: as §1, §2, §3, §4, §5

[6] = MTT cytotoxicity in nonmalignant bronchial epithelium cells; format: cell-based; settings: human; nonmalignant cells, 48 h; read-out: LC50 BEAS-2B
Description: as §1, §2, §3, §4, §5

[7] = test system: BEAS-2B; assay: as above; format: cell-based; settings: Homo sapiens, BEAS-2B, nonmalignant cells, 48 h
Description: as §1, §2, §3, §4, §5

[8] = test system: PC-3; assay: cells; format: cell-based; settings: Homo sapiens, PC-3, 48 h, average ± SEM
Description: as §1, §2, §3, §4

[9] = test system: HTB-54; assay: cells; format: cell-based; settings: Homo sapiens, HTB-54, 48 h, average ± SEM
Description: as §1, §2, §3, §4

N#C[Se]c1ccc(NC(=O)c2ccc(C#N)cc2)cc1 [I.2d]
activity at 10 µM [1]: 105%
activity at 10 µM [2]: 74.3%
activity at 10 µM [3]: 115%

Cc1ccc(C(=O)Nc2ccc([Se]C#N)cc2)cc1 [I.2g]
activity at 10 µM [1]: 94.1%
activity at 10 µM [2]: 70.4%
activity at 10 µM [3]: 94.3%

N#C[Se]c1ccc(NC(=O)c2ccco2)cc1 [I.2h]
GI50 ([4]; Homo sapiens, 184B5, nonmalignant cells, 48 h, read-out: GI50 184B5): 36.1 µM
IC (TGI) ([4]; Homo sapiens, 184B5, nonmalignant cells, 48 h, read-out: TGI 184B5): > 100 µM
Selectivity index (SI) = GI50 (184B5)/GI50 (MCF-7) ([4]; breast): 5.66
LC50 (50% lethal concentration) [5]: > 100 µM
LC50 (50% lethal concentration) [6]: > 100 µM
GI50 ([7]; read-out: GI50 BEAS-2B): 8.47 µM
IC (TGI) ([7]; read-out: TGI BEAS-2B): 67.3 µM
GI50 ([8]; read-out: GI50 PC-3): > 100 µM
LC50 ([8]; read-out: LC50 PC-3): > 100 µM
IC (TGI) ([8]; read-out: TGI PC-3): > 100 µM
GI50 ([9]; read-out: GI50 HTB54): > 100 µM
CC50 ([9]; read-out: LC50 HTB54): > 100 µM
IC (TGI) ([9]; read-out: TGI HTB54): > 100 µM
activity at 10 µM [1]: 46.7%
GI50 ([1]; read-out: GI50 HT-29): 42.7 ± 1.2 µM
CC50 ([1]; read-out: LC50 HT-29): > 100 µM
IC (TGI) ([1]; read-out: TGI HT-29): > 100 µM
activity at 10 µM [2]: 41.6%
GI50 ([2]; read-out: GI50 MCF-7, 48 h, average ± SEM): 7.4 ± 1.9 µM
CC50 ([2]; read-out: LC50 MCF-7): 94.9 ± 4.7 µM
IC (TGI) ([2]; read-out: TGI MCF-7): 50.4 ± 1.3 µM
activity at 10 µM [3]: 47.1%
GI50 ([3]; read-out: GI50 CCRF-CEM): 21.8 ± 3.1 µM
CC50 ([3]; read-out: LC50 CCRF-CEM): > 100 µM
IC (TGI) ([3]; read-out: TGI CCRF-CEM): > 100 µM

N#C[Se]c1ccc(NC(=O)C23CC4CC(CC(C4)C2)C3)cc1 [I.2k]
activity at 10 µM [1]: 99.7%
activity at 10 µM [2]: 113%
activity at 10 µM [3]: 107%

N#C[Se]c1ccc(NC(=O)/C=C/c2ccccc2)cc1 [I.2l]
activity at 10 µM [1]: 76%
activity at 10 µM [2]: 65%
activity at 10 µM [3]: 62%

N#C[Se]c1ccc(NC(=O)c2cccc3ccccc23)cc1 [I.2m]
activity at 10 µM [1]: 101%
activity at 10 µM [2]: 101%
activity at 10 µM [3]: 70.9%

CSc1ccc(C(=O)Nc2ccc([Se]C#N)cc2)cc1 [I.2n]
activity at 10 µM [1]: 101%
activity at 10 µM [2]: 69.5%
activity at 10 µM [3]: 100%

O=P(Nc1ccc([Se][Se]c2ccc(NP(=O)(Oc3ccccc3)Oc3ccccc3)cc2)cc1)(Oc1ccccc1)Oc1ccccc1 [II.1c]
activity at 10 µM [1]: 109%
activity at 10 µM [2]: 94%
activity at 10 µM [3]: 85.2%

O=P(Nc1ccccc1)(Nc1ccc([Se][Se]c2ccc(NP(=O)(Nc3ccccc3)Oc3ccccc3)cc2)cc1)Oc1ccccc1 (stereo not shown) [II.1f]
activity at 10 µM [1]: 106%
activity at 10 µM [2]: 90%
activity at 10 µM [3]: 125%

Cc1ccc(OP(=O)(Nc2ccc([Se][Se]c3ccc(NP(=O)(Oc4ccc(C)cc4)Oc4ccc(C)cc4)cc3)cc2)Oc2ccc(C)cc2)cc1 [II.1g]
activity at 10 µM [1]: 104%
activity at 10 µM [2]: 82.6%
activity at 10 µM [3]: 111%

N#C[Se]c1ccc(NP(=O)(Oc2ccccc2)Oc2ccccc2)cc1 [II.2c]
activity at 10 µM [1]: 116%
activity at 10 µM [2]: 114%
activity at 10 µM [3]: 81.9%

N#C[Se]c1ccc(NP(=O)(Nc2ccccc2)Oc2ccccc2)cc1 (stereo not shown) [II.2f]
activity at 10 µM [1]: 64.6%
activity at 10 µM [2]: 61.4%
activity at 10 µM [3]: 22.3%

Cc1ccc(OP(=O)(Nc2ccc([Se]C#N)cc2)Oc2ccc(C)cc2)cc1 [II.2g]
activity at 10 µM [1]: 99.1%
activity at 10 µM [2]: 75.6%
activity at 10 µM [3]: 108%

From publication PMC8069832, “New Amides and Phosphoramidates Containing Selenium: Studies on Their Cytotoxicity and Antioxidant Activities in Breast Cancer” (Antioxidants, 2021)
